{"source": "paper PMC7033111", "about": "“Rational design of novel benzisoxazole derivatives with acetylcholinesterase inhibitory and serotoninergic 5-HT4 receptors activities for the treatment of Alzheimer’s disease” (Scientific Reports, 2020)", "origin": "cited, not measured here", "key": {"[1]": {"target": "h5-HT4eR", "settings": "donecopride reference value; read-out: 5-HT4R Ki; cited from earlier work"}, "[2]": {"tested_on": "5-HT4R", "settings": "cited from earlier work"}, "[3]": {"design": "method as in PMID 25157130", "settings": "mice; cited from earlier work"}, "[4]": {"tested_on": "hAChE", "design": "method as in PMID 25157130", "settings": "donecopride reference value; cited from earlier work"}}}
{"smiles": "COc1cc(N)c(Cl)cc1C(=O)CCC1CCN(CC2CCCCC2)CC1", "note": "[donecopride]", "values": [{"measurement": "Ki", "setting": "[1]", "result": "8.5 ± 0.3", "unit": "nM"}, {"measurement": "% of control agonist response (5-HT4R)", "setting": "[2]", "result": 48, "unit": "%"}, {"measurement": "in vivo effects, object recognition test", "setting": "[3]", "result": "improvement of memory performances"}, {"measurement": "IC50", "setting": "[4]", "result": "16 ± 5", "unit": "nM"}]}
